Patent US12594336B2, “Trace element solution” (WARBURTON TECHNOLOGY LIMITED, priority 2012, dated 2026)

What was measured:
[1] = Feasibility study: incorporation/solubilisation of stabilizers in the EDTA-complexed trace element solution
Text: Incorporation of vitamin B12 with different stabilizers was screened.
The following concentrations of butaphosphan have been tested:

[2] = Physical stability study (visual inspection) of stabilizer solutions with vitamin B12 at ambient temperature; assay type: physicochemical
Procedure: Based on known injectable processes, with organometallics complex with EDTA, incorporation of vitamin B12 was screened by testing 3 possible different stabilizers. • Second Phase consists in evaluating the physical and chemical stability of the formulations which have been developed during precedent phase with the aim to select stable formulation prototypes.
Physical stability study was performed at 5° C., 25° C./60% RH and 40° C./75% RH: T0, T1, T2 and T3 months. A visual inspection was checked at different periods in order to control the absence of precipitation in the formulations. Assay of vitamin B12 was followed up on stability at 25° C./60% RH and 40° C./75% RH: T0, T3 and T6 months.
Then a quantity of stock solution of vitamin B12 was incorporated in the mix to have a final concentration of 0.15% w/v.
Physical stability study was performed on 5 and 10% w/v butaphosphan (with vitamin B12) solutions at ambient temperature: […]

| Structure (SMILES) | appearance of solution obtained ([1]; butaphosphan 5% w/v) | appearance of solution obtained ([1]; butaphosphan 10% w/v) | physical stability, appearance ([2]; 5 and 10% w/v butaphosphan with vitamin B12 (0.15% w/v), ambient temperature, T1 week) | physical stability, appearance ([2]; 5 and 10% w/v butaphosphan with vitamin B12 (0.15% w/v), ambient temperature, T2 weeks) | physical stability, appearance ([2]; 5 and 10% w/v butaphosphan with vitamin B12 (0.15% w/v), ambient temperature, T4 weeks) | physical stability, appearance ([2]; 5 and 15% w/v glycine with vitamin B12, ambient temperature, T1 week) | physical stability, appearance ([2]; 5 and 15% w/v glycine with vitamin B12, ambient temperature, T2 weeks) | physical stability, appearance ([2]; 5 and 15% w/v glycine with vitamin B12, ambient temperature, T4 weeks) |
| --- | --- | --- | --- | --- | --- | --- | --- | --- |
| CCCCNC(C)(C)[PH](=O)O [butaphosphan, (1-Butylamino-1-methyl-ethyl)-phosphinic acid] | dark clear solution without particles | dark clear solution without particles | dark clear solution | dark clear solution | dark clear solution |  |  |  |
| NCC(=O)O [glycine, Glycine] |  |  |  |  |  | dark clear solution with particle | dark clear solution with particle | dark clear solution with particle |
